Data as given in patent publication US8784818B2, “Anti-VEGFR-3 antibody compositions” (ImClone LLC, priority 2010, dated 2014).

Tests used:
NCI-H292 tumor = assay: NCI-H292 lung cancer xenograft model; format: in vivo, mice; conditions: versus control group; Antibody 2 40 mg/kg 3 times per week i.p.; Docetaxel 12 mg/kg q7d; through Day 26
Experimental: In order to test for activity of anti-VEGFR-3 antibodies in lung cancer, the NCI-H292 xenograft model is used. Nu/nu mice (female, 7-8 weeks of age) are injected subcutaneously with 2×10^6 NCI-H292 cells/mouse. When tumors reach approximately 300 mm^3, mice are randomized by tumor size into the following treatment groups (n=15): 1) USP saline at 10 μl/g, 3 times per week, i.p., starting on day 2. 2) Antibody 2 at 40 mg/kg, 3 times per week, i.p., starting day 2. 3) Docetaxel at 12 mg/kg, q7d, starting day 1. 4) Docetaxel at 12 mg/kg, q7d, starting day 1 plus Antibody 2 at 40 mg/kg, 3 times per week, starting day 2.
Tumor volumes are measured approximately twice a week and body weights are recorded at least twice a week for the duration of the study. At sacrifice, mice are euthanized by CO2 asphyxiation. The T/C % is calculated for each treatment group as the ratio of the relative tumor volume in the experimental groups versus the control group. Tumor growth and body weights are compared to the control group by repeated measures ANOVA through Day 26.

CAL27 tumors = assay: CAL27 squamous cell carcinoma xenograft model; format: in vivo, mice; conditions: versus USP saline; Antibody 2 40 mg/kg 3 days per week; cisplatin 7 mg/kg q7d; through Day 61
Experimental: In order to test for activity of anti-VEGFR-3 antibodies in head and neck cancer, the CAL27 xenograft model is used. CAL27 cell suspension, at 1×10^7 cells/mouse, is injected s.c. into the left flank of 60 female athymic mice. When tumors reach ˜180 mm^3, eight days after cell implantation, the mice are randomized and divided into four treatment groups (n=12): 1.) USP saline control, 0.5 ml i.p., 3 days per week 2.) Antibody 2 at 40 mg/kg, 3 days per week 3.) cisplatin at 7 mg/kg, q7d 4.) Antibody 2 at 40 mg/kg, 3 days per week+cisplatin at 7 mg/kg, q7d.
Tumor measurements are recorded twice weekly; RM ANOVA through Day 61 is used to compare tumor growth among the treatment groups. Chi Squared tests are used to test for statistical significance in the number of tumor regressions among the treatment groups.

**Q.** How did the T/C % (NCI-H292 tumor) turn out when CC(=O)O[C@@]12CO[C@@H]1C[C@H](O)[C@@]1(C)C(=O)[C@H](O)C3=C(C)[C@@H](OC(=O)[C@H](O)[C@@H](NC(=O)OC(C)(C)C)c4ccccc4)C[C@@](O)([C@@H](OC(=O)c4ccccc4)[C@H]21)C3(C)C [Docetaxel] was run?
**A.** 49%

**Q.** Which T/C % (CAL27 tumors) does the source give for N.N.[Cl][Pt][Cl] [cisplatin] here?
**A.** 39%
